# Data as given in patent US11963520B2, “Transgenic mouse expressing human cereblon” (Celgene Corporation, priority 2016, dated 2024).
# How the values were obtained:
# Assay type in all cases: cell-based, mouse
# Aiolos = assay: Ex vivo compound treatment of splenocytes, western blot of Aiolos degradation (Aiolos versus GAPDH)
# Procedure: (§1) For example, degradation of CRBN substrate (e.g., Aiolos, Ikaros, or GSPT1) was evaluated by ex vivo compound treatment of splenocytes isolated from the human CRBN transgenic mice. Spleens from wild type (WT), heterozygous (HET), and homozygous human CRBN knock-in mice (HOM) were collected and dissociated in 5 mL PBS using gentleMACS™ Dissociator (Miltenyi Biotec, San Diego, CA). Spleen homogenates were filtered using 70 μm pre-separation filters (#130-095-823, Miltenyi Biotec) into 15-mL conical tubes and centrifuged at 1200 rpm for 5 min. After decanting, splenocytes were re-suspended in 1 mL of ACK Lysing Buffer (Gibco #A10492-01, Thermo Fisher Scientific, Waltham, MA) for 2 min. to lyse red blood cells. Ten mL of cold PBS was added to each conical tube to stop lysis, and splenocytes were again centrifuged at 1200 rpm for 5 min. After decanting, splenocytes were re-suspended in 1 mL PBS, filtered again, and pooled for each mouse phenotype to count and determine viability using Vi-Cell™ XR cell counter (Beckman Coulter, Indianapolis, IN). After counting and viability check, tubes with pooled splenocytes were centrifuged at 1200 rpm for 5 min., decanted, and resuspended in warm RPMI 1640 media supplemented with 10% FBS at a concentration of 5.5×10^6 splenocytes/mL (20-30 mL depending on number of splenocytes).
# (§2) 15×10^6 WT, HET, or HOM splenocytes were plated in wells of separate 6-well plates. Compounds diluted in DMSO (final concentration 0.2%)/RPMI 1640 media were dispensed into wells at concentrations ranging from 10 μM to 1 nM. 0.2% DMSO was also dispensed in one well of each plate as a negative control. Splenocytes were treated with compounds from 4 to 24 hrs in incubators at 37° C. Compound-treated splenocytes were then collected in 15 mL conical tubes, centrifuged at 1500 rpm for 6 mins, media aspirated off, and washed once with 5 mL PBS. After washing, splenocytes were again centrifuged, PBS was aspirated off, and splenocyte pellets were flash frozen on dry ice.
# (§3) Splenocyte pellets were lysed using cold 1× cell lysis buffer (#9803, Cell Signaling Technology, Danvers, MA), supplemented with cOmplete ULTRA protease inhibitor tablet (#05892920001, Roche Diagnostics Corporation, Indianapolis, IN) and phosphatase inhibitors (Pierce #78442, Thermo Fisher Scientific, Waltham, MA). Protein concentration of lysates was determined using BCA Protein Assay Kit (Pierce #A10492-01, Thermo Fisher Scientific, Waltham, MA) and western blots were run to evaluate substrate degradation resulting from ex vivo compound treatment. Twenty microgram of each splenoctye lysate was loaded onto 4-12% Criterion XT Bis Tris gels (Bio-Rad #3450124, Bio-Rad Laboratories, Hercules, CA) and run at 130 V for 1.5 hr and then transferred onto nitrocellulose membranes using Trans-Blot Turbo Transfer System (Bio-Rad Laboratories). After 1 hr of blocking in Odyssey® Blocking buffer (#927-40100, LI-COR Biotechnology, Lincoln, NE), membranes were incubated with primary antibodies for Aiolos (polyclonal goat, #sc-18683, Santa Cruz Biotechnology, Dallas, TX), Ikaros (monoclonal rabbit, #14859, Cell Signaling Technology), GSPT-1 (polyclonal rabbit, #ab49878, Abcam PLC, Cambridge, United Kingdom), GAPDH (monoclonal mouse, #AM4300, Thermo Fisher Scientific) overnight at 4° C. After washing in PBST, membranes were probed with a fluorescent secondary antibody, Alexa Fluor 680® goat anti-rabbit IgG (Invitrogen #A-21076, Thermo Fisher Scientific) or IRDye® 800CW goat anti-mouse IgG (#926-32210, LI-COR Biotechnology), for 1 hr at room temperature. Following incubation with secondary antibodies, membranes were again washed in PBST. Membranes were scanned using Odyssey® CLx Imaging System (LI-COR Biotechnology) and quantified using Image Studio™ software.
# (§4) A second ex vivo experiment using splenocytes from WT, HET, and HOM mice was conducted to study the dose dependency of Aiolos or Ikaros degradation in response to a range of Compound B concentrations. […]
# Ikaros = assay: Ex vivo compound treatment of splenocytes, western blot of Ikaros degradation (Ikaros versus GAPDH)
# Procedure: as §1, §2, §3, §4
# GSPT1 = assay: Ex vivo compound treatment of splenocytes, western blot of GSPT1 degradation (GSPT1 versus GAPDH); details: 4 hr ex vivo
# Procedure: as §1, §2
# as §3, with “software. […]” for “software.”
# [1] = HET and HOM splenocytes, 1 μM or 10 μM, 24 hrs ex vivo
# [2] = HET splenocytes, 0.001 μM, 6 hr ex vivo
# [3] = HET splenocytes, 0.01 μM, 6 hr ex vivo
# [4] = HET splenocytes, 0.1 μM, 6 hr ex vivo
# [5] = HET splenocytes, 1 μM, 6 hr ex vivo
# [6] = HET splenocytes, 1 μM, 24 hr ex vivo
# [7] = HOM splenocytes, 0.001 μM, 6 hr ex vivo
# [8] = HOM splenocytes, 0.01 μM, 6 hr ex vivo
# [9] = HOM splenocytes, 0.1 μM, 6 hr ex vivo
# [10] = HOM splenocytes, 1 μM, 6 hr ex vivo
# [11] = HOM splenocytes, 1 μM, 24 hr ex vivo
# [12] = WT splenocytes, 1 μM or 10 μM, 24 hrs ex vivo
# [13] = WT splenocytes, 1 μM, 24 hr ex vivo
# [14] = WT splenocytes, 10 μM, 24 hr ex vivo
# [15] = WT splenocytes, any concentration (1, 0.1, 0.01, 0.001 μM), 6 hr ex vivo
structure (smiles),measurement,setting,value
"O=C1CC[C@H](N2Cc3c(OCc4ccc(CN5CCOCC5)cc4)cccc3C2=O)C(=O)N1 (stereo in doubt) [Compound B, 3-(4-((4-(morpholinomethyl)benzyl)oxy)-1-oxoisoindolin-2-yl)piperidine-2,6-dione]",degradation of Aiolos,"Aiolos; HET (heterozygous human CRBN knock-in) splenocytes, 10 μM, 24 hr ex vivo",77%
same,degradation of Aiolos (in words),Aiolos; [1],significant degradation
same,degradation of Aiolos,Aiolos; [2],0%
same,degradation of Aiolos,Aiolos; [3],13%
same,degradation of Aiolos,Aiolos; [4],32%
same,degradation of Aiolos,Aiolos; [5],41%
same,degradation of Aiolos,Aiolos; [6],76%
same,degradation of Aiolos,"Aiolos; HOM (homozygous human CRBN knock-in) splenocytes, 10 μM, 24 hr ex vivo",84%
same,degradation of Aiolos,Aiolos; [7],28%
same,degradation of Aiolos,Aiolos; [8],54%
same,degradation of Aiolos,Aiolos; [9],66%
same,degradation of Aiolos,Aiolos; [10],78%
same,degradation of Aiolos,Aiolos; [11],81%
same,degradation of Aiolos (in words),Aiolos; [12],only minimal degradation
same,degradation of Aiolos,Aiolos; [13],28%
same,degradation of Aiolos,Aiolos; [14],27%
same,degradation of Aiolos (in words),Aiolos; [15],no degradation
same,degradation of Ikaros (in words),Ikaros; [1],significant degradation
same,degradation of Ikaros,Ikaros; [2],0%
same,degradation of Ikaros,Ikaros; [3],8%
same,degradation of Ikaros,Ikaros; [4],45%
same,degradation of Ikaros,Ikaros; [5],49%
same,degradation of Ikaros,Ikaros; [6],60%
same,degradation of Ikaros,"Ikaros; HET splenocytes, 10 μM, 24 hr ex vivo",68%
same,degradation of Ikaros,Ikaros; [7],14%
same,degradation of Ikaros,Ikaros; [8],41%
same,degradation of Ikaros,Ikaros; [9],55%
same,degradation of Ikaros,Ikaros; [10],59%
same,degradation of Ikaros,Ikaros; [11],76%
same,degradation of Ikaros,"Ikaros; HOM splenocytes, 10 μM, 24 hr ex vivo",82%
same,degradation of Ikaros (in words),Ikaros; [12],only minimal degradation
same,degradation of Ikaros,Ikaros; [13],23%
same,degradation of Ikaros,Ikaros; [14],20%
same,degradation of Ikaros (in words),Ikaros; [15],no degradation
"Cc1ccc(NC(=O)NCc2ccc3c(c2)CN(C2CCC(=O)NC2=O)C3=O)cc1Cl (stereo not drawn) [Compound C, 1-(3-chloro-4-methylphenyl)-3-((2-(2,6-dioxopiperidin-3-yl)-1-oxoisoindolin-5-yl)methyl)urea]",degradation of GSPT1,"GSPT1; HOM splenocytes, 1 nM",65%
same,degradation of GSPT1,"GSPT1; HOM splenocytes, 100 nM",89%
same,degradation of GSPT1 (in words),GSPT1; HOM splenocytes,significant degradation
same,degradation of GSPT1,"GSPT1; WT splenocytes, 1 nM",11%
same,degradation of GSPT1,"GSPT1; WT splenocytes, 100 nM",7%
same,degradation of GSPT1 (in words),GSPT1; WT splenocytes,only minimal degradation
"O=C1CCC(N2Cc3cc(CNC(=O)C(F)(F)c4ccc(F)cc4)ccc3C2=O)C(=O)N1 (stereo not drawn) [Compound E, 2-(4-flurophenyl)-N-((2-(2,6-dioxopiperidin-3-yl)-1-oxoisoindolin-5-yl)methyl)-2,2-difluoroacetamide]",degradation of GSPT1,"GSPT1; HOM splenocytes, 100 nM",70%
same,degradation of GSPT1,"GSPT1; HOM splenocytes, 10 μM",74%
same,degradation of GSPT1 (in words),GSPT1; HOM splenocytes,significant degradation
same,degradation of GSPT1,"GSPT1; WT splenocytes, 100 nM",0%
same,degradation of GSPT1,"GSPT1; WT splenocytes, 10 μM",6%
